From patent EP0714884A1, “A method for the production of a basic amino acid” (Ajinomoto Co., Inc., priority 1994, dated 1996)

Experiment: Filterability evaluation: time period required for filtration through a membrane filter
Assay type: physicochemical
Conditions: for filterability: neutral to acidic pH, result in words; for Filtration period of aqueous solution: L-arginine 5g/dl, 30°C, 1.4 ℓ, 2 x 10⁵ Pa, Millipore 0.22 µmGS membrane filter
Procedure: The dried purified crystals were obtained by the three method described above were filtered under the condition shown below to compare the filterability. The pH was adjusted with 2N aqueous solution of HCl, and the filterability was evaluated by determining the time period required for the filtration.
The dried purified crystals obtained by the method described above were filtered under conditions similar to those in Example 1 to evaluate the filterability.

| SMILES | filterability | Filtration period of aqueous solution (pH 3) | Filtration period of aqueous solution (pH 5) | Filtration period of aqueous solution (pH 7) | Filtration period of aqueous solution (pH 11) |
| --- | --- | --- | --- | --- | --- |
| N=C(N)NCCC[C@H](N)C(=O)O [UF method, L-arginine] | extremely poor filterability | Occlusion | 2640 s | 1400 s | 850 s |
| N=C(N)NCCC[C@H](N)C(=O)O [Solution of purified crystals by LR-O method] [L-arginine] | – | 914 s | 920 s | 918 s | 921 s |
| N=C(N)NCCC[C@H](N)C(=O)O [Conventional method, L-arginine] | extremely poor filterability | Occlusion | 8000 s | 1510 s | 1010 s |
| N=C(N)NCCC[C@H](N)C(=O)O [LR-O method, L-arginine] | no deterioration of the filterability | 920 s | 880 s | 910 s | 930 s |
